Results published in patent US20070086953A1, “Medicinal Aerosol Formulation Products With Improved Chemical Stability” (priority 2004, published 2007).

Experiments:
[1] = Stability study of TA 2005 HFA solution formulation in MDI cans, 40° C. and 75% relative humidity; assay type: physicochemical; details: three months, mean of two cans
Experimental: A formulation for delivering a nominal dose of 1 μg per actuation of TA 2005 was prepared with the composition as follows:
The formulation (120 actuations/canister, overage of 30 actuations) was filled in aluminium canisters having the internal surface coated with Teflon (two stage pressure filling) and fitted with a metering valve having a 63 μl metering chamber provided with a butyl rubber gasket as described in WO 03/078538 (Bespak) cited above. In particular, the gaskets were made of a bromobutyl rubber made of approximately 97% isobutylene and approximately 3% isoprene and having been polymerised by using an aluminium chloride catalyst and by treating the thus obtained isoprene-isobutylene rubber with bromine.
The same formulation was filled in the same kind of cans fitted with valves provided with EPDM rubber gaskets.
A stability study was carried out storing the formulation in upright and inverted cans at 40° C. and 75% relative humidity.
The stability test in Examples 1 and 2 was carried out both in upright and inverted cans. In inverted position, the formulation is in direct contact with the valve materials for all the duration of the test in order to detect possible chemical interactions with the valve materials that may negatively affect the stability of the active ingredient in the formulation. In upright cans the interactions between the valve materials and the formulation are very limited and so also the possible negative effects on the stability of the active ingredient in the formulation may be unnoticed.

[2] = 4 μg/63 μl, stored upright at 5° C., teflon-coated aluminium canisters, EPDM gaskets, after nine months; cited from earlier work

COc1ccc(C[C@@H](C)NC[C@H](O)c2ccc(O)c3[nH]c(=O)ccc23)cc1.Cl [TA 2005, 8-hydroxy-5-[(1R)-1-hydroxy-2-[[(1R)-2-(4-methoxyphenyl)-1-methylethyl]amino]ethyl]-2(1H)-quinolinone hydrochloride]
percent amount of TA 2005 ([1]; inverted cans, EPDM rubber gaskets): 77% | percent amount of TA 2005 ([1]; inverted cans, bromobutyl rubber gaskets): 97% | percent amount of TA 2005 ([1]; upright cans, EPDM rubber gaskets): 98% | percent amount of TA 2005 ([1]; upright cans, bromobutyl rubber gaskets): 98% | TA 2005 assay [2]: higher than 95%
